Measured values taken from ChEMBL document CHEMBL2151015, “Discovery of a potent, selective, and orally bioavailable acidic 11β-hydroxysteroid dehydrogenase type 1 (11β-HSD1) inhibitor: discovery of 2-[(3S)-1-[5-(cyclohexylcarbamoyl)-6-propylsulfanylpyridin-2-yl]-3-piperidyl]acetic acid (AZD4017)” (J Med Chem, 2012).
≈ marks a conversion by molar mass, not a printed value. Calls of active or inactive are those of the source. No cut-off for these calls is given here.

What was measured:
[1] = Octanol-buffer partition coefficient, log D of the compound after 30 mins by shake flask method at pH 7.4; conditions: octanol/buffer
[2] = Fraction unbound in rat plasma after 18 to 19 hrs by equilibrium dialysis; assay type: ADME, cell-free
[3] = Aqueous solubility of the compound after 24 hrs by LC-UV analysis at pH 7.4; assay type: physicochemical; conditions: aqueous medium
[4] = Intrinsic clearance in rat hepatocytes assessed per 10^6 cells
[5] = Oral bioavailability in rat; assay type: ADME, organism-based; conditions: in vivo
[6] = Fraction unbound in mouse plasma after 18 to 19 hrs by equilibrium dialysis; assay type: ADME, cell-free
[7] = Fraction unbound in dog plasma after 18 to 19 hrs by equilibrium dialysis; assay type: ADME, cell-free, Canis lupus familiaris
[8] = Fraction unbound in human plasma after 18 to 19 hrs by equilibrium dialysis; assay type: ADME, cell-free
[9] = Apparent permeability from apical to basal side of MDCK cells at 10 uM; assay type: ADME, cell-based, Canis lupus familiaris; conditions: dog
[10] = Apparent permeability from basal to apical side of MDCK cells at 10 uM; assay type: ADME, cell-based, Canis lupus familiaris; conditions: dog
CYP1A2 = CYP1A2 (Homo sapiens, UniProt P05177); assay: Inhibition of CYP1A2 at 10 uM; assay type: ADME
CYP2C9 = CYP2C9 (Homo sapiens, UniProt P11712); assay: Inhibition of CYP2C9 at 10 uM; assay type: ADME
CYP2D6 = CYP2D6 (Homo sapiens, UniProt P10635); assay: Inhibition of CYP2D6 at 10 uM; assay type: ADME
CYP2C19 = CYP2C19 (Homo sapiens, UniProt P33261); assay: Inhibition of CYP2C19 at 10 uM; assay type: ADME
CYP3A4 = CYP3A4 (Homo sapiens, UniProt P08684); assay: Inhibition of CYP3A4 at 10 uM; assay type: ADME
[11] = Plasma clearance in mouse at 1 to 3 mg/kg; assay type: ADME, organism-based; parameters: dose 1-3 mg/kg
[12] = Volume of distribution at steady state in mouse at 1 to 3 mg/kg; assay type: ADME, organism-based; parameters: dose 1-3 mg/kg; conditions: in vivo, read-out: Vdss
[13] = Half life in mouse at 1 to 3 mg/kg, iv; assay type: ADME, organism-based; parameters: dose 1-3 mg/kg, route intravenous; conditions: in vivo
[14] = Half life in mouse at 1 to 3 mg/kg, po; assay type: ADME, organism-based; parameters: dose 1-3 mg/kg, route oral; conditions: in vivo
[15] = Oral bioavailability in mouse at 1 to 3 mg/kg; assay type: ADME, organism-based; conditions: in vivo
[16] = Plasma clearance in rat at 1 to 3 mg/kg; assay type: ADME, organism-based; parameters: dose 1-3 mg/kg
[17] = Volume of distribution at steady state in rat at 1 to 3 mg/kg; assay type: ADME, organism-based; parameters: dose 1-3 mg/kg; conditions: in vivo, read-out: Vdss
[18] = Half life in rat at 1 to 3 mg/kg, iv; assay type: ADME, organism-based; parameters: dose 1-3 mg/kg, route intravenous; conditions: in vivo
[19] = Half life in rat at 1 to 3 mg/kg, po; assay type: ADME, organism-based; parameters: dose 1-3 mg/kg, route oral; conditions: in vivo
[20] = Oral bioavailability in rat at 1 to 3 mg/kg; assay type: ADME, organism-based; conditions: in vivo
[21] = Plasma clearance in dog at 1 to 3 mg/kg; assay type: ADME, organism-based, Canis lupus familiaris; parameters: dose 1-3 mg/kg
[22] = Volume of distribution at steady state in dog at 1 to 3 mg/kg; assay type: ADME, organism-based, Canis lupus familiaris; parameters: dose 1-3 mg/kg; conditions: in vivo, read-out: Vdss
[23] = Half life in dog at 1 to 3 mg/kg, iv; assay type: ADME, organism-based, Canis lupus familiaris; parameters: dose 1-3 mg/kg, route intravenous; conditions: in vivo
[24] = Half life in dog at 1 to 3 mg/kg, po; assay type: ADME, organism-based, Canis lupus familiaris; parameters: dose 1-3 mg/kg, route oral; conditions: in vivo
[25] = Oral bioavailability in dog at 1 to 3 mg/kg; assay type: ADME, organism-based, Canis lupus familiaris; conditions: in vivo
Hepatocyte [26] = assay: Metabolic stability in rat hepatocytes assessed as compound remaining; assay type: ADME, cell-based
Liver [27] = assay: Drug uptake in rat liver assessed as covalent binding measured per mg protein at 40 uCi/kg, po at 2 hrs; assay type: ADME, organism-based; conditions: in vivo
Plasma = assay: Drug uptake in rat plasma assessed as covalent binding measured at 40 uCi/kg, po at 24 hrs; assay type: ADME, organism-based; conditions: in vivo
Liver [28] = assay: Drug uptake in rat liver assessed as covalent binding measured per mg protein at 40 uCi/kg, po at 24 hrs; assay type: ADME, organism-based; conditions: in vivo
[29] = target: 11-beta-hydroxysteroid dehydrogenase type 2 (Homo sapiens, UniProt P80365); assay: Inhibition of recombinant 11betaHSD2 using cortisol as substrate after 40 mins by fluorescence spectrophotometry
[30] = target: 17-beta-hydroxysteroid dehydrogenase type 1 (Homo sapiens, UniProt P14061); assay: Inhibition of recombinant 17betaHSD1 using [3H]estrone as substrate after 20 mins by flow scintillation analysis
[31] = target: 17-beta-hydroxysteroid dehydrogenase type 3 (Homo sapiens, UniProt P37058); assay: Inhibition of recombinant 17betaHSD3 using [3H]androstenedione as substrate after 90 mins by flow scintillation analysis
[32] = target: Glucocorticoid receptor (Homo sapiens) (UniProt P04150); assay: Activity at glucocorticoid receptor
[33] = target: Mineralocorticoid receptor (Homo sapiens) (UniProt P08235); assay: Activity at mineralocorticoid receptor
Salmonella typhimurium = assay: Mutagenicity against Salmonella typhimurium by Ames test; assay type: toxicity, organism-based; conditions: salmonella enterica subsp. enterica serovar typhimurium
L5178Y = assay: Mutagenicity against mouse L5178Y cells by mouse lymphoma assay; assay type: toxicity, cell-based
Cavia porcellus = organism: Cavia porcellus; assay: Toxicity against guinea pig by monophasic action potential assay; assay type: organism-based; conditions: in vivo
[34] = Induction in cytochrome P450 in rat up to 1 month; assay type: ADME
[35] = target: Type-2 angiotensin II receptor (Homo sapiens) (UniProt P50052); assay: Activity at AT2 receptor
[36] = target: Gastrin/cholecystokinin type B receptor (Homo sapiens) (UniProt P32239); assay: Activity at CCK2 receptor
[37] = target: 11-beta-hydroxysteroid dehydrogenase 1 (Mus musculus, UniProt P50172); assay: Inhibition of N-terminal His6-tagged full length mouse 11betaHSD1 expressed in baculovirus infected cells using cortisone as substrate after 25 mins by HTRF assay
[38] = target: 11-beta-hydroxysteroid dehydrogenase 1 (Rattus norvegicus, UniProt P16232); assay: Inhibition of N-terminal His6-tagged full length rat 11betaHSD1 expressed in baculovirus infected cells using cortisone as substrate after 25 mins by HTRF assay
[39] = target: 11-beta-hydroxysteroid dehydrogenase type 1 (Canis lupus familiaris, UniProt Q5XX84); assay: Inhibition of N-terminal His6-tagged full length dog 11betaHSD1 expressed in baculovirus infected cells using cortisone as substrate after 25 mins by HTRF assay
[40] = Inhibition of N-terminal His6-tagged full length cynomolgus monkey 11betaHSD1 expressed in baculovirus infected cells using cortisone as substrate after 25 mins by HTRF assay; parameters: species or system Macaca fascicularis
Mus musculus [41] = assay: Ex-vivo inhibition of 11betaHSD1 in C57Bl6J mouse epididymal adipose tissue using [3H]cortisone as substrate at 50 mg/kg, po after 1 hr by flow scintillation analysis; assay type: functional
Mus musculus [42] = assay: Ex-vivo inhibition of 11betaHSD1 in C57Bl6J mouse epididymal adipose tissue using [3H]cortisone as substrate at 1500 mg/kg, po after 1 hr by flow scintillation analysis; assay type: functional
Mus musculus [43] = assay: Ex-vivo inhibition of 11betaHSD1 in po dosed C57Bl6J mouse epididymal adipose tissue using [3H]cortisone as substrate after 1 hr by flow scintillation analysis; assay type: functional, organism-based
[44] = Metabolic stability in dog hepatocytes assessed as compound remaining; assay type: ADME, cell-based, Canis lupus familiaris, Hepatocyte
Hepatocyte [45] = assay: Metabolic stability in human hepatocytes assessed as compound remaining; assay type: ADME, cell-based
in vivo = conditions: rat

Gastrin/cholecystokinin type B receptor (Homo sapiens), sequence (P32239 whole entry): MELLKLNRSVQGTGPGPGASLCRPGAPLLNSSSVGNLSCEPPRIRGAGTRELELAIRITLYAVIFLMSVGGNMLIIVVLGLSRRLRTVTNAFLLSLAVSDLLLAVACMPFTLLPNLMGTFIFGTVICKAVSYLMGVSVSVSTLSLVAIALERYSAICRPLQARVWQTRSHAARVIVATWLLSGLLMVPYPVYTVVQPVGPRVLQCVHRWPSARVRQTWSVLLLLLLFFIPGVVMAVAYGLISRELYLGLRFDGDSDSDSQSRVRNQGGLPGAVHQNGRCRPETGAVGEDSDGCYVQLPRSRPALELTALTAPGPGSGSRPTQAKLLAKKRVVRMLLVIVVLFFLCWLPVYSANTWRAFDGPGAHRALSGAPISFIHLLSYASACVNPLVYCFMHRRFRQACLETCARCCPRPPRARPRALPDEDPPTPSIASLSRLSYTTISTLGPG
17-beta-hydroxysteroid dehydrogenase type 3, sequence (P37058 whole entry): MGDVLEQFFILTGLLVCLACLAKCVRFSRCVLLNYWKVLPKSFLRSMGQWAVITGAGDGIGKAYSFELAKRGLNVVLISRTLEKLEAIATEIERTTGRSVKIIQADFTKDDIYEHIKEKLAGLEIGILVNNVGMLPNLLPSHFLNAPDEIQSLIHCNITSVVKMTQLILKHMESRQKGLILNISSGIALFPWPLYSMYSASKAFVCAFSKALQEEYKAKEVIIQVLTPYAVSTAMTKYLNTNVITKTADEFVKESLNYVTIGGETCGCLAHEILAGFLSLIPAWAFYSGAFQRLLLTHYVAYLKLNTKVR
CYP3A4, sequence (P08684 whole entry): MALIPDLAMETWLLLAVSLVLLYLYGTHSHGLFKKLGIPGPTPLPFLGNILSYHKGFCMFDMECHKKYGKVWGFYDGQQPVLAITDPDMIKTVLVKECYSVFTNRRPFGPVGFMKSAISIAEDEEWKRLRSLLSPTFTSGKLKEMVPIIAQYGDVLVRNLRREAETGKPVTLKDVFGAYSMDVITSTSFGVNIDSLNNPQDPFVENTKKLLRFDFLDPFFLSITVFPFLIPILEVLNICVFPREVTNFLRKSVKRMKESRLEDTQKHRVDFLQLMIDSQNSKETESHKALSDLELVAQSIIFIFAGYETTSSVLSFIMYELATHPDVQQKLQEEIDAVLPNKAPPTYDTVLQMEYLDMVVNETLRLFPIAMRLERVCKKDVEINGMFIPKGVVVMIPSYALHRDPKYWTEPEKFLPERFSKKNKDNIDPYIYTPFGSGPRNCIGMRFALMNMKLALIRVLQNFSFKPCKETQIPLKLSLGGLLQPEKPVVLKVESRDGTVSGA
Mineralocorticoid receptor (Homo sapiens), sequence (P08235 whole entry): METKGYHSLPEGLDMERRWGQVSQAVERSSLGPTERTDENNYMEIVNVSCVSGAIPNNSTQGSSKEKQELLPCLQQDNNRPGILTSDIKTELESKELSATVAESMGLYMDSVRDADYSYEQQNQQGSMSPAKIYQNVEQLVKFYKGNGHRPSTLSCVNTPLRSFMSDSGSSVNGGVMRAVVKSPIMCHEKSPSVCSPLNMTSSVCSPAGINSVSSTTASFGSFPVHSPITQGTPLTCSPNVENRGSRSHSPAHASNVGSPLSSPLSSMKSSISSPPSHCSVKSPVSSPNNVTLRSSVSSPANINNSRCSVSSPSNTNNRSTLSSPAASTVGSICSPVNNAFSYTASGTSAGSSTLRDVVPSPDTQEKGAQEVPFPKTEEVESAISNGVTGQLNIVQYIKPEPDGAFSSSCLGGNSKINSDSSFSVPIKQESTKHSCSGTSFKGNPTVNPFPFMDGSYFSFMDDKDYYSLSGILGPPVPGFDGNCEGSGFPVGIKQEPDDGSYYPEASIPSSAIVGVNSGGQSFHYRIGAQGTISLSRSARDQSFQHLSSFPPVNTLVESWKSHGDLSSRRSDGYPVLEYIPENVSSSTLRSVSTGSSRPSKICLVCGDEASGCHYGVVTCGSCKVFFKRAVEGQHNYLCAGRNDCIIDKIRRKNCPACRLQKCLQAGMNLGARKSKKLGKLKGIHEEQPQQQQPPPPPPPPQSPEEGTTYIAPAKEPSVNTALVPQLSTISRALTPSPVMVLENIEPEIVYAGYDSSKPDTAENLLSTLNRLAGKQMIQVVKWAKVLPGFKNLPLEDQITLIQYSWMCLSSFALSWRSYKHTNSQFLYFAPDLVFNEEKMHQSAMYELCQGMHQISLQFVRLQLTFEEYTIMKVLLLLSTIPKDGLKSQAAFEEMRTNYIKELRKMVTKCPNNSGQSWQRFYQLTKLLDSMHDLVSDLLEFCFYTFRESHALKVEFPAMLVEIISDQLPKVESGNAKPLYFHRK
CYP2C9, sequence (P11712 whole entry): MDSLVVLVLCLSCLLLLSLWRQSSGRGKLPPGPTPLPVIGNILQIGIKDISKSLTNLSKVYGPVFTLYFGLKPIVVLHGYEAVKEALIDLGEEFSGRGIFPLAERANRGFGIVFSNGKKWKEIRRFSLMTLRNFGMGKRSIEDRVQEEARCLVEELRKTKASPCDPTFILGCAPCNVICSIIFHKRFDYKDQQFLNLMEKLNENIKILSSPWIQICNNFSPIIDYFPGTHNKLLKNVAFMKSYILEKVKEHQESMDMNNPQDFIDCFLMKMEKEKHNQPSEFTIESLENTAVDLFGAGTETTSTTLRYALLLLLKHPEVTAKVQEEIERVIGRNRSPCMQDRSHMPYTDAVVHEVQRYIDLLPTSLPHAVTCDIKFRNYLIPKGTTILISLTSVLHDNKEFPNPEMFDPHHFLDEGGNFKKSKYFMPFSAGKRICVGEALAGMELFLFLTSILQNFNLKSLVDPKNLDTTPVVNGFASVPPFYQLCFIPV
17-beta-hydroxysteroid dehydrogenase type 1, sequence (P14061 whole entry): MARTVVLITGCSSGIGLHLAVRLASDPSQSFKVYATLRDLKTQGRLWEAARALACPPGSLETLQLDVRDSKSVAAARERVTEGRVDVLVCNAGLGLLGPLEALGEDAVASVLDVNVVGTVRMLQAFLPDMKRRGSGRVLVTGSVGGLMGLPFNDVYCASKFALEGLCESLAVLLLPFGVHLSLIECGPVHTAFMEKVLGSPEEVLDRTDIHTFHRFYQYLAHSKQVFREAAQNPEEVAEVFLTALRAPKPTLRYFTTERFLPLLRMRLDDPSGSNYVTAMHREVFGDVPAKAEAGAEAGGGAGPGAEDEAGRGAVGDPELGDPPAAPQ
Glucocorticoid receptor (Homo sapiens), sequence (P04150 whole entry): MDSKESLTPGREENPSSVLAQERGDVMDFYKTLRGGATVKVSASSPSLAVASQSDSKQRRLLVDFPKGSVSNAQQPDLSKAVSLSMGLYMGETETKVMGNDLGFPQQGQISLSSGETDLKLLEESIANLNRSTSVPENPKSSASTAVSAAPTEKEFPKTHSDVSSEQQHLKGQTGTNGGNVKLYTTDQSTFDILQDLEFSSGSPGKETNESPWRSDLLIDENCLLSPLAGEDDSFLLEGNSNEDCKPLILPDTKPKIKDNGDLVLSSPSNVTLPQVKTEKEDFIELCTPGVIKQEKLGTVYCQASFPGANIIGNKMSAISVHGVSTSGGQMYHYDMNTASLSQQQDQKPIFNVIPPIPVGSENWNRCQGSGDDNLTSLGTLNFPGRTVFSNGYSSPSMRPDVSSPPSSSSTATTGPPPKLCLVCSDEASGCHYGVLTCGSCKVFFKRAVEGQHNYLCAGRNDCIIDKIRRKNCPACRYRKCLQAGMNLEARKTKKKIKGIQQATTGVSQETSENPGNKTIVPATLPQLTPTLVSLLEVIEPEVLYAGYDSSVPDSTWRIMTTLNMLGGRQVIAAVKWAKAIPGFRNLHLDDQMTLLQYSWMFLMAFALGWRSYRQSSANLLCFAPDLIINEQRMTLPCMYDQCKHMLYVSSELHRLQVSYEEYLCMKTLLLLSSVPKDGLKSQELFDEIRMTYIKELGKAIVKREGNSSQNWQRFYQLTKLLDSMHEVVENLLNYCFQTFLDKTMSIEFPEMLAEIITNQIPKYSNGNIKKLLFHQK
11-beta-hydroxysteroid dehydrogenase 1 (Rattus norvegicus, UniProt P16232), sequence (P16232 whole entry): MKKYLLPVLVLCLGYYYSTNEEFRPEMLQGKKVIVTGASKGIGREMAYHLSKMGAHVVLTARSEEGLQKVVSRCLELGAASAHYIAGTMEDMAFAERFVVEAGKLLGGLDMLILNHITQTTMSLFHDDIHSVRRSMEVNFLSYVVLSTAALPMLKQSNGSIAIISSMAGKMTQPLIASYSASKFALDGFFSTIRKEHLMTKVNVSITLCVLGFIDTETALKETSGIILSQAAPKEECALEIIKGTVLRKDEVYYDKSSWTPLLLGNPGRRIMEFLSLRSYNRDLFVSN
Type-2 angiotensin II receptor (Homo sapiens), sequence (P50052 whole entry): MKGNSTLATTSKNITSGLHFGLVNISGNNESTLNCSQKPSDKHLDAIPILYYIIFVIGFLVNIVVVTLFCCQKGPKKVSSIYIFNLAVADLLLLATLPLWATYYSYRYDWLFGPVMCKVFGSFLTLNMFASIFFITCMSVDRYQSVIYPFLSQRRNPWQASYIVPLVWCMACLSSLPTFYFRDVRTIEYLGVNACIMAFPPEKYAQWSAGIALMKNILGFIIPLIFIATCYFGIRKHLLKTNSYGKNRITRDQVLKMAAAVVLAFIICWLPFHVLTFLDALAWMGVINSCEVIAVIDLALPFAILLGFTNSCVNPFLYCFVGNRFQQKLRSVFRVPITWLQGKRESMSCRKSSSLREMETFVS
11-beta-hydroxysteroid dehydrogenase 1 (Mus musculus, UniProt P50172), sequence (P50172 whole entry): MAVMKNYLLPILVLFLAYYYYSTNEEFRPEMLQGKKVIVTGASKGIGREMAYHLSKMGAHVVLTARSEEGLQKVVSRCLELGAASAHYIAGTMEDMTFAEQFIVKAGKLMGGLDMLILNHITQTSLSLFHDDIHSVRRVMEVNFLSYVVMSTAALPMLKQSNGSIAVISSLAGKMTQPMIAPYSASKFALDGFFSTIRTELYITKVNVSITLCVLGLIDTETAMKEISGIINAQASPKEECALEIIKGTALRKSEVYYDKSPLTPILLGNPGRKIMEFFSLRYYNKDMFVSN

logD at 0.5 h [1]: 2.2
fraction unbound [2]: 0.017
solubility at 24 h [3]: 144 µM (≈ 60.4 µg/mL)
hepatocyte CLint [4]: < 2 µL/min/1e6 cells
bioavailability [5]: > 100%
fraction unbound [6]: 0.029
fraction unbound [7]: 0.023
fraction unbound [8]: 0.008
Papp A→B at 10 µM [9]: 290 nm/s
Papp B→A at 10 µM [10]: 220 nm/s
inhibition at 10 µM (CYP1A2): < 25%
inhibition at 10 µM (CYP2C9): < 25%
inhibition at 10 µM (CYP2D6): < 25%
inhibition at 10 µM (CYP2C19): < 25%
inhibition at 10 µM (CYP3A4): < 25%
clearance [11]: 0.96 L/h/kg
Vd [12]: 4.2 L/kg
half-life [13]: 4.2 h
half-life [14]: 3.2 h
bioavailability [15]: > 100%
clearance [16]: 0.54 L/h/kg
Vd [17]: 2.6 L/kg
half-life [18]: 4.4 h
half-life [19]: 4.7 h
bioavailability [20]: > 100%
clearance [21]: 0.42 L/h/kg
Vd [22]: 0.9 L/kg
half-life [23]: 6.2 h
half-life [24]: 4.9 h
bioavailability [25]: 60%
Stability (Hepatocyte [26]): 66%
Drug uptake (Liver [27]): < 25 pmol
Drug uptake (Plasma): Not Active
Drug uptake (Liver [28]): Not Active
IC50 [29]: > 30 µM
IC50 [30]: > 30 µM
IC50 [31]: > 30 µM
Activity [32]: inactive
Activity [33]: inactive
Activity [35]: Active
Activity [36]: Active
IC50 [37]: 0.75 µM
IC50 [38]: 4.06 µM
IC50 [39]: 3.77 µM
IC50 [40]: 0.029 µM
Stability [44]: 34%
Stability (Hepatocyte [45]): 93%
clearance (in vivo): 0.54 L/h/kg
Structure (SMILES): CCCSc1nc(N2CCC[C@@H](CC(=O)O)C2)ccc1C(=O)NC1CCCCC1 [AZD-4017]
Activity (Salmonella typhimurium): Non-toxic
Activity (L5178Y): Non-toxic
Activity (Cavia porcellus): Non-toxic
Activity [34]: Non-toxic
inhibition in vivo at 50 mg/kg (Mus musculus [41]): 50%
Imax (Mus musculus [42]): 70%
inhibition (Mus musculus [43]): Dose-dependent effect
